Reference: PubChem BioAssay (NCI)
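Protocol summary: plate cells (96-well), add compound at 5 concentrations, incubate 48 h, interpolate endpoints linearly. GI50 = concentration required for 50% inhibition of growth. Definition used: TGI = concentration required for complete inhibition of growth.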

Experiments:
Assay in all cases: NCI-60 cell line screen, 48 h
[1] = tested on: XF 498 CNS
[2] = tested on: DMS 273 small cell lung
[3] = tested on: SNB-78 CNS
[4] = tested on: HOP-18 NSCLC
[5] = tested on: KM20L2 colon
[6] = tested on: M19-MEL melanoma
[7] = tested on: DMS 114 small cell lung
[8] = tested on: RXF-631 renal
[9] = tested on: MDA-N

| SMILES | TGI [1] [µM] | TGI [2] [µM] | TGI [3] [µM] | TGI [4] [µM] | TGI [5] [µM] | TGI [6] [µM] | TGI [7] [µM] | TGI [9] [µM] | also measured |
| --- | --- | --- | --- | --- | --- | --- | --- | --- | --- |
| Cc1ccc(NC(=O)C2C(=O)N(c3ccc(C)cc3)C(=O)/C2=N\NC(N)=S)cc1 (stereo not given) | > 100 | > 100 | > 100 | > 100 | > 100 | > 100 | > 100 |  |  |
| CC(=O)[O][Ga]([Cl])[O]C(C)=O | > 100 | > 100 | > 100 | > 100 | > 100 | > 100 | > 100 |  | GI50 [1]: > 100 µM; GI50 [2]: > 100 µM; GI50 [8]: > 100 µM; TGI [8]: > 100 µM; GI50 [3]: > 100 µM; GI50 [4]: > 100 µM; GI50 [5]: > 100 µM; GI50 [6]: 65.6 µM; GI50 [7]: > 100 µM |
| Cc1[nH]c2ccccc2c1C(=O)CC1(O)C(=O)Nc2ccccc21 (stereo not given) |  | > 100 | > 100 |  | > 100 | > 100 |  |  | TGI [8]: > 100 µM |
| Cc1ccc(S(=O)(=O)NC(=O)C2C(=O)CC3(CCCCC3)CC2=O)cc1 |  |  |  |  |  |  |  | > 100 |  |
| O=C(O)CCCCCCC[C@H]1S[C@H]1CCCCCCO | > 100 |  | > 100 | > 100 |  | > 100 | > 100 |  |  |
| CC(=O)[CH-]C(C)=O.CC(=O)[CH-]C(C)=O.[CH2-]CCC.[CH2-]CCC.[Sn+4] | 1.07 | 2.53 |  | 1.88 | 2.65 |  | 0.301 |  | GI50 [1]: 0.262 µM; GI50 [2]: 1.19 µM; GI50 [4]: 0.569 µM; GI50 [5]: 1.36 µM |
| [Cl-].[O-]/N=C(\c1ccccc1)c1ccccn1.[O-]/N=C(\c1ccccc1)c1ccccn1.[O-]/N=C(\c1ccccc1)c1ccccn1.[Sm+3] |  | 95.1 |  |  | > 100 | 45.7 | 72 |  | GI50 [2]: 28.7 µM; GI50 [5]: 40.1 µM; GI50 [6]: 21.2 µM; GI50 [7]: 23 µM |
| COc1ccc2c(CN3CCCCC3CO)cc3cc(OC)c(OC)cc3c2c1 (stereo not given) | 18.9 | 11.7 | 23.1 | 38 | 15.2 | 11.4 | 15.8 |  |  |
| CCCCCC(=O)C(C)C1=Nc2nnc(CCCCCCCc3nnc4n3C(=O)C(C(C)C(=O)CCCCC)=N4)n2C1=O (stereo not given) | > 100 |  |  | > 100 | > 100 | > 100 | > 100 |  | TGI [8]: > 100 µM |
| Nc1ccccc1C(=O)CC1OC(=O)c2ccccc21 (stereo not given) |  |  |  |  |  |  |  | > 100 |  |
| CC(C)=CC(=O)C/C(=N\NC(N)=S)C(=O)Nc1ccc(Cl)cc1 |  | > 100 | > 100 | > 100 | > 100 | > 100 | > 100 |  |  |
| C=C(C)C(=O)O[C@H]1C[C@@]23O[C@@H]2CCC(=C[C@H]2OC(=O)C(=C)[C@H]12)COC3O (stereo not given in full) |  |  |  |  |  |  |  | > 100 |  |
| Cc1nc(Nc2ccc(Cl)cc2)sc1C(=O)NNc1ccc([N+](=O)[O-])cc1[N+](=O)[O-] | 32.4 | 39.3 | > 100 | 27 | 35.4 | 41.7 | 37.8 |  |  |
| CC(C)=CCc1c(OC(=O)c2c(C)cc(O)cc2O)cc(CO)c(CO)c1O |  |  |  |  |  |  |  | 34.8 |  |
| COc1cccc(-c2cc(=O)c3cc(OC)ccc3[nH]2)c1 |  |  |  |  |  |  |  | 0.131 |  |
| c1cc(N(CCn2cccn2)CCn2cccn2)cc(N(CCn2cccn2)CCn2cccn2)c1 | > 100 | > 100 | > 100 |  | > 100 | > 100 | > 100 |  | TGI [8]: > 100 µM |
| COC(=O)/C=C1/CCC(C(=O)OC)N1 (stereo not given) | > 100 | > 100 | > 100 |  | > 100 | > 100 | > 100 |  |  |
| CC1CCC2(CC1)NN=c1s/c(=C\c3ccc(O)cc3)c(=O)n1N2 (stereo not given) | > 100 | > 100 | > 100 | > 100 | > 100 | > 100 | > 100 |  |  |
| COCCCNC(=O)C1C(=O)N(CCCOC)C(=O)/C1=N\N (stereo not given) |  | > 100 | > 100 | > 100 | > 100 | > 100 | > 100 |  | TGI [8]: > 100 µM |
| C#Cc1cccc(N2C(=O)CCC2=O)c1 | 29 | 47.4 | 54.6 | 34.3 | 59 | 35.3 | 21.8 | 28.7 | TGI [8]: 41.1 µM |

| SMILES | TGI [1] [µM] | TGI [2] [µM] | TGI [3] [µM] | TGI [4] [µM] | TGI [5] [µM] | TGI [6] [µM] | TGI [7] [µM] | TGI [9] [µM] | also measured |
| --- | --- | --- | --- | --- | --- | --- | --- | --- | --- |
| CC(=O)OCC1OC(n2c(-c3ccc(Cl)cc3)ccc(C#N)c2=S)C(OC(C)=O)C(OC(C)=O)C1OC(C)=O (stereo not given) |  |  |  |  |  |  |  | > 100 |  |
| O=C(CP(=O)(O)O)NC(CC(=O)OCc1ccccc1)C(=O)OCc1ccccc1 (stereo not given) |  |  |  |  |  |  |  | > 100 |  |
| CCCC(=O)NC1=C(Cl)C(=O)c2ccccc2C1=O |  |  |  |  |  |  |  | 14.6 |  |
| CCOC(=O)C1N(S(=O)(=O)c2ccc(C)cc2)CCC12c1ccccc1N(C(C)=O)C2c1ccc(OC)c(OC)c1 (stereo not given) | > 100 | > 100 | > 100 |  | > 100 | > 100 | > 100 |  |  |
| Oc1[nH]c2ccccc2c1N=Nc1ccccn1 |  |  |  |  |  |  |  | > 100 |  |
| COc1ccc(-c2cc(=O)c3ccc(C)nc3[nH]2)cc1 |  |  |  |  |  |  |  | > 100 | GI50 [9]: 55.2 µM |
| Cc1cc(=O)oc2cc(OC(=O)N(C)C)c(Cl)cc12 |  |  |  |  |  |  |  | > 100 |  |
| COc1ccc(Nc2nc3ccc(C(F)(F)F)cc3nc2-c2ccccc2)cc1OC | 85 | > 100 |  |  |  |  | > 100 |  | TGI [8]: > 100 µM |
| CC(C)CC(NC(=O)c1cccc(O)c1O)C(=O)NCc1cc(CNC(=O)C(CC(C)C)NC(=O)c2cccc(O)c2O)cc(CNC(=O)C(CC(C)C)NC(=O)c2cccc(O)c2O)c1 (stereo not given) |  | 41.9 | > 100 | > 100 | 21 |  | 18.4 |  |  |
| COc1ccc2c(c1)N1CCc3cc(OC)c(OC)cc3C1C2 (stereo not given) | > 100 | > 100 | > 100 | > 100 | > 100 | > 100 | > 100 |  |  |
| CN(C)CC(C)(C)C(=O)/C=C/c1ccc(/C=C/C(=O)C(C)(C)CN(C)C)cc1 | 2.55 | 2.38 |  |  | 2.35 | 3.14 | 2.76 |  | TGI [8]: 4.14 µM |
| Clc1ccc(SC(/C=C/NNC2=NC(c3ccccc3)C(c3ccccc3)=NN2)c2ccccc2)cc1 (stereo not given) | 54.6 | > 100 | > 100 |  | 53.7 | 99.4 | 75.6 |  | TGI [8]: > 100 µM |
| CCCCCC[N+](C)(C)Cc1ccc(C[N+](C)(C)CCCCCC)cc1 |  | 3.73 | 5.15 | 21.8 | 34.4 |  |  |  |  |
| C=C1C(=O)O[C@@H]2C[C@@H](C)[C@@H]3C=CC(=O)[C@@]3(C)[C@@H](OC(=O)CC(=O)O[C@H]3[C@@H]4C(=C)C(=O)O[C@@H]4C[C@@H](C)[C@@H]4C=CC(=O)[C@]43C)[C@H]12 | 0.05 | 0.122 | 0.101 | 0.365 | 0.237 | 0.0376 | 0.108 | 10.2 | TGI [8]: 0.455 µM |
| O=c1nc(/C=C/c2ccccc2Cl)cc2n1CCN2CCO |  |  |  |  |  | > 100 | > 100 |  |  |
| CC(=O)O[C@H]1CC[C@@]2(C)C(=CC[C@H]3[C@@H]4CC[C@H](c5cc(C(F)(F)F)n(C(C)=O)n5)[C@@]4(C)CC[C@@H]32)C1 |  |  |  |  |  |  |  | 23.6 |  |
| [Cl][Hg][Cl] |  |  |  |  |  |  |  | 28.9 | GI50 [9]: 15.5 µM |
| O=C1c2ccccc2C(Br)(Br)c2ccccc21 | 97.8 | > 31.6 | > 100 | > 31.6 | > 100 | > 31.6 | > 31.6 |  |  |
| CC(C)CCC(=O)c1ccoc1 |  |  |  |  |  |  |  | > 100 |  |
